According to patent US9556179B2 (BRISTOL-MYERS SQUIBB COMPANY, priority 2012, dated 2017):

Assays:
[1] = target: CK1δ (Homo sapiens (Human), UniProt P48730); test: CK1δ kinase assay (Caliper LABCHIP electrophoretic separation of fluoresceinated peptide substrate and product); type: biochemical; conditions: 200 pM enzyme, 50 μM ATP, 22 hours at room temperature
Outline: (§1)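 Kinase reactions ran 22 h at room temperature, were stopped with EDTA, and phosphorylated product was separated electrophoretically from unphosphorylated fluoresceinated peptide. Compounds were tested at eleven concentrations from 10 mM DMSO stocks. IC50 by non-linear regression.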

[2] = target: CK1ε (Homo sapiens (Human), UniProt P49674); test: CK1ε kinase assay (Caliper LABCHIP electrophoretic separation of fluoresceinated peptide substrate and product); type: biochemical; conditions: 200 pM enzyme, 50 μM ATP, 22 hours at room temperature
Chain of CK1ε (P49674 whole entry): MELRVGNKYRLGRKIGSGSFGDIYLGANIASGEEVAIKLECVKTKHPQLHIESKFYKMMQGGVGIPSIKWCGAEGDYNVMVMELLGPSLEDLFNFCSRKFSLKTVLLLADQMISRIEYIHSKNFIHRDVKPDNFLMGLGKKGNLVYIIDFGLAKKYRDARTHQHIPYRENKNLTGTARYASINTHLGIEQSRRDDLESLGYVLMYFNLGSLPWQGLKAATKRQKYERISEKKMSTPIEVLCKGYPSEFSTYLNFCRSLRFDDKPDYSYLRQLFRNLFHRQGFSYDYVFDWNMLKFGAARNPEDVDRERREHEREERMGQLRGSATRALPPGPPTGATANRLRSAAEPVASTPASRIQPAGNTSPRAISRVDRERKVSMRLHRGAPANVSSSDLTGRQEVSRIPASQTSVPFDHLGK
Outline: as §1

Chain of CK1δ (P48730 whole entry): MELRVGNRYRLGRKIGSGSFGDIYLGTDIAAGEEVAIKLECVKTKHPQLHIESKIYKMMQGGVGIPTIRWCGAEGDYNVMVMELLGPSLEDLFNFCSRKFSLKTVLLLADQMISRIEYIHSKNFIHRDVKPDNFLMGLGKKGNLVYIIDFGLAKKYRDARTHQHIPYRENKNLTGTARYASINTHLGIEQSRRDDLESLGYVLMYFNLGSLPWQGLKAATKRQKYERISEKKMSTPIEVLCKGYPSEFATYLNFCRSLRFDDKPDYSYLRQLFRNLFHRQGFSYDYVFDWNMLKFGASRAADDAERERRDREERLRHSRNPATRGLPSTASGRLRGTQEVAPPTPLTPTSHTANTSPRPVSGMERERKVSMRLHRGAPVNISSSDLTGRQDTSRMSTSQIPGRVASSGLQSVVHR

SMILES | IC50 [1] [nM] | IC50 [2] [nM]
O=C(Nc1cn2nc(-c3c(-c4ccc(F)cc4)nc4ccccn34)ccc2n1)c1ccnc(F)c1 [Compound 196, 2-fluoro-N-(6-(2-(4-fluorophenyl)imidazo[1,2-a]pyridin-3-yl)imidazo[1,2-b]pyridazin-2-yl)isonicotinamide] | 3.65 | 5.91
CC(C)(C)c1cc(C(=O)Nc2cn3nc(-c4c(-c5ccc(F)cc5)nc5ccccn45)ccc3n2)ccn1 [Compound 197, 2-(tert-butyl)-N-(6-(2-(4-fluorophenyl)imidazo[1,2-a]pyridin-3-yl)imidazo[1,2-b]pyridazin-2-yl)isonicotinamide] | 2.99 | 8.98
O=C(Nc1cn2nc(-c3c(-c4ccc(F)cc4)nc4ccccn34)ccc2n1)c1ccnc(C(F)(F)F)c1 [Compound 198, N-(6-(2-(4-fluorophenyl)imidazo[1,2-a]pyridin-3-yl)imidazo[1,2-b]pyridazin-2-yl)-2-(trifluoromethyl) isonicotinamide] | 3.88 | 34.6
O=C(Nc1cn2nc(-c3c(-c4ccc(F)cc4)nc4ccccn34)ccc2n1)c1cc(Cl)ncc1C(F)(F)F [Compound 199, 2-chloro-N-(6-(2-(4-fluorophenyl)imidazo[1,2-a]pyridin-3-yl)imidazo[1,2-b]pyridazin-2-yl)-5-(trifluoromethyl) isonicotinamide] | 3.24 | 16.3
CC(C)(C)c1cc(C(=O)Nc2cn3nc(-c4c(-c5ccc(F)cc5)nc5ccccn45)ccc3n2)ncn1 [Compound 202, 6-(tert-butyl)-N-(6-(2-(4-fluorophenyl)imidazo[1,2-a]pyridin-3-yl)imidazo[1,2-b]pyridazin-2-yl)pyrimidine-4-carboxamide] | 9.84 | 28.1
O=C(Nc1cn2nc(-c3c(-c4ccc(F)cc4)nc4ccccn34)ccc2n1)c1cccc(-c2cccnc2)c1 [Compound 204, N-(6-(2-(4-fluorophenyl)imidazo[1,2-a]pyridin-3-yl)imidazo[1,2-b]pyridazin-2-yl)-3-(pyridin-3-yl)benzamide] | 2.09 | 1.83
O=C(Nc1cn2nc(-c3c(-c4ccc(F)cc4)nc4ccccn34)ccc2n1)c1cccc(-c2cncnc2)c1 [Compound 205, N-(6-(2-(4-fluorophenyl)imidazo[1,2-a]pyridin-3-yl)imidazo[1,2-b]pyridazin-2-yl)-3-(pyrimidin-5-yl)benzamide] | 2.04 | 4.35
N#Cc1cccc(-c2cccc(C(=O)Nc3cn4nc(-c5c(-c6ccc(F)cc6)nc6ccccn56)ccc4n3)c2)c1 [Compound 207, 3′-cyano-N-(6-(2-(4-fluorophenyl)imidazo[1,2-a]pyridin-3-yl]imidazo[1,2-b]pyridazin-2-yl)-[1,1′-biphenyl]-3-carboxamide] | 2.35 | 18.1
Cc1nocc1C(=O)Nc1cn2nc(-c3c(-c4ccc(F)cc4)nc4ccccn34)ccc2n1 [Compound 209, N-(6-(2-(4-fluorophenyl)imidazo[1,2-a]pyridin-3-yl)imidazo[1,2-b]pyridazin-2-yl)-3-methylisoxazole-4-carboxamide] | 1.83 | 29.5
Cc1onc(-c2ccccc2)c1C(=O)Nc1cn2nc(-c3c(-c4ccc(F)cc4)nc4ccccn34)ccc2n1 [Compound 210, N-(6-(2-(4-fluorophenyl)imidazo[1,2-a]pyridin-3-yl)imidazo[1,2-b]pyridazin-2-yl)-5-methyl-3-phenylisoxazole-4-carboxamide] | 17.6 | 75.1
O=C(Nc1cn2nc(-c3c(-c4ccc(F)cc4)nc4ccccn34)ccc2n1)c1cccc(-c2nccs2)c1 [Compound 211, N-(6-(2-(4-fluorophenyl)imidazo[1,2-a]pyridin-3-yl)imidazo[1,2-b]pyridazin-2-yl)-3-(thiazol-2-yl)benzamide] | 1.96 | 6.77
O=C(Cn1ccnc1)Nc1cn2nc(-c3c(-c4ccc(F)cc4)nc4ccccn34)ccc2n1 [Compound 214, N-(6-(2-(4-fluorophenyl)imidazo[1,2-a]pyridin-3-yl)imidazo[1,2-b]pyridazin-2-yl)-2-(1H-imidazol-1-yl) acetamide] | 2.19 | 22.3
CN1CCC(C(=O)Nc2cn3nc(-c4c(-c5ccc(F)cc5)nc5ccccn45)ccc3n2)CC1 [Compound 216, N-(6-(2-(4-fluorophenyl)imidazo[1,2-a]pyridin-3-yl)imidazo[1,2-b]pyridazin-2-yl)-1-methylpiperidine-4-carboxamide] | 2.95 | 26.7
Cc1nc(-c2cccnc2)sc1C(=O)Nc1cn2nc(-c3c(-c4ccc(F)cc4)nc4ccccn34)ccc2n1 [Compound 218, N-(6-(2-(4-fluorophenyl)imidazo[1,2-a]pyridin-3-yl)imidazo[1,2-b]pyridazin-2-yl)-4-methyl-2-(pyridin-3-yl) thiazole-5-carboxamide] | 60.7 | 178
O=C(CN1CCOCC1)Nc1cn2nc(-c3c(-c4ccc(F)cc4)nc4ccccn34)ccc2n1 [Compound 221, N-(6-(2-(4-fluorophenyl)imidazo[1,2-a]pyridin-3-yl)imidazo[1,2-b]pyridazin-2-yl)-2-morpholinoacetamide] | 4.06 | 42.2
O=C(Nc1cn2nc(-c3c(-c4ccc(F)cc4)nc4ccc(N5CCCC5)nn34)ccc2n1)c1ccncc1 [Compound 222, N-(2-(4-fluorophenyl)-6-(pyrrolidin-1-yl)-[3,6′-biimidazo[1,2-b]pyridazin]-2′-yl)isonicotinamide] | 30.7 | 43.6
CN1CCN(c2ccc3nc(-c4ccc(F)cc4)c(-c4ccc5nc(NC(=O)c6ccncc6)cn5n4)n3n2)CC1 [Compound 223, N-(2-(4-fluorophenyl)-6-(4-methylpiperazin-1-yl)-[3,6′-biimidazo[1,2-b]pyridazin]-2′-yl)isonicotinamide] | 6.85 | 10.1

Further lines, results first:

IC50 [1] [nM] | IC50 [2] [nM] | SMILES
0.603 | 4.87 | O=C(Nc1cn2nc(-c3c(-c4ccc(F)cc4)nc4ccccn34)ccc2n1)c1ccnc(O)c1 [Compound 195, N-(6-(2-(4-fluorophenyl)imidazo[1,2-a]pyridin-3-yl)imidazo[1,2-b]pyridazin-2-yl)-2-hydroxyisonicotinamide]
1.78 | 4.61 | O=C(Nc1cn2nc(-c3c(-c4ccc(F)cc4)nc4ccccn34)ccc2n1)c1ccncc1F [Compound 200, 3-fluoro-N-(6-(2-(4-fluorophenyl)imidazo[1,2-a]pyridin-3-yl)imidazo[1,2-b]pyridazin-2-yl) isonicotinamide]
1.21 | 3.04 | O=C(Nc1cn2nc(-c3c(-c4ccc(F)cc4)nc4ccccn34)ccc2n1)c1cncc(Cl)c1 [Compound 201, 5-chloro-N-(6-(2-(4-fluorophenyl)imidazo[1,2-a]pyridin-3-yl)imidazo[1,2-b]pyridazin-2-yl) nicotinamide]
0.447 | 3.68 | O=C(Nc1cn2nc(-c3c(-c4ccc(F)cc4)nc4ccccn34)ccc2n1)c1ccnc(N2CCOCC2)c1 [Compound 203, N-(6-(2-(4-fluorophenyl)imidazo[1,2-a]pyridin-3-yl)imidazo[1,2-b]pyridazin-2-yl)-2-morpholinoisonicotinamide]
1.59 | 17 | O=C(Nc1cn2nc(-c3c(-c4ccc(F)cc4)nc4ccccn34)ccc2n1)c1ccon1 [Compound 208, N-(6-(2-(4-fluorophenyl)imidazo[1,2-a]pyridin-3-yl)imidazo[1,2-b]pyridazin-2-yl)isoxazole-3-carboxamide]
0.64 | 5.98 | O=C(Nc1cn2nc(-c3c(-c4ccc(F)cc4)nc4ccccn34)ccc2n1)c1cncc(-c2cccs2)c1 [Compound 212, N-(6-(2-(4-fluorophenyl)imidazo[1,2-a]pyridin-3-yl)imidazo[1,2-b]pyridazin-2-yl)-5-(thiophen-2-yl) nicotinamide]
1.61 | 17.2 | O=C(Nc1cn2nc(-c3c(-c4ccc(F)cc4)nc4ccccn34)ccc2n1)c1ccnc2[nH]cnc12 [Compound 213, N-(6-(2-(4-fluorophenyl)imidazo[1,2-a]pyridin-3-yl)imidazo[1,2-b]pyridazin-2-yl)-3H-imidazo[4,5-b] pyridine-7-carboxamide]
1.67 | 17.1 | Cc1cc(C)n(CCC(=O)Nc2cn3nc(-c4c(-c5ccc(F)cc5)nc5ccccn45)ccc3n2)n1 [Compound 215, 3-(3,5-dimethyl-1H-pyrazol-1-yl)-N-(6-(2-(4-fluorophenyl)imidazo[1,2-a]pyridin-3-yl)imidazo[1,2-b]pyridazin-2-yl)propanamide]
0.833 | 12.2 | O=C(Nc1cn2nc(-c3c(-c4ccc(F)cc4)nc4ccccn34)ccc2n1)C1CCN(c2ccncc2)CC1 [Compound 217, N-(6-(2-(4-fluorophenyl)imidazo[1,2-a]pyridin-3-yl)imidazo[1,2-b]pyridazin-2-yl)-1-(pyridin-4-yl)piperidine-4-carboxamide]
1.15 | 1.22 | Cc1nc(-c2ccncc2)sc1C(=O)Nc1cn2nc(-c3c(-c4ccc(F)cc4)nc4ccccn34)ccc2n1 [Compound 219, N-(6-(2-(4-fluorophenyl)imidazo[1,2-a]pyridin-3-yl)imidazo[1,2-b]pyridazin-2-yl)-4-methyl-2-(pyridin-4-yl) thiazole-5-carboxamide]
0.734 | 11.4 | O=C(Nc1cn2nc(-c3c(-c4ccc(F)cc4)nc4ccccn34)ccc2n1)C1CCOCC1 [Compound 220, N-(6-(2-(4-fluorophenyl)imidazo[1,2-a]pyridin-3-yl)imidazo[1,2-b]pyridazin-2-yl)tetrahydro-2H-pyran-4-carboxamide]
0.694 | 2.81 | Nc1ccc2nc(-c3ccc(F)cc3)c(-c3ccc4nc(NC(=O)c5ccncc5)cn4n3)n2n1 [Compound 224, N-(6-amino-2-(4-fluorophenyl)-[3,6′-biimidazo[1,2-b]pyridazin]-2′-yl)isonicotinamide]
